We go through 38 molecules from patent US20050197350A1, “Novel quinoline, tetrahydroquinazoline, and pyrimidine derivatives and methods of treatment related to the use thereof” (TAISHO PHARMACEUTICAL CO., LTD., priority 2003, published 2005).

The subject of this test is MCH receptors. The test is described as follows: MCH receptor activity class (method not given). As to conditions: class by percent of control at 10^-7 M or IC50.

As for `CN(C)c1nc(N[C@H]2CC[C@@H](CNC(=O)/C=C/c3ccc([N+](=O)[O-])cc3)CC2)nc2c1CCCC2` [compound 641], the class was 2 (Class 2: The value of percent of control at 10^−7 M was from 40% to 60% or the value of IC′50 was from 50 nM to 200 nM.). As to `CN(C)c1nc(N[C@H]2CC[C@@H](CNC(=O)Cc3ccccc3Br)CC2)nc2c1CCCC2` [compound 642], the class was 3 (Class 3 The value of percent of control at 10^−7 M was more than 60% or the value of IC50 was more than 200 nM.).

Take `Cc1cc(C(=O)NC[C@H]2CC[C@@H](Nc3nc4c(c(N(C)C)n3)CCCC4)CC2)ccc1F` [compound 643]: the class is reported as 2 (Class 2: The value of percent of control at 10^−7 M was from 40% to 60% or the value of IC′50 was from 50 nM to 200 nM.). Turning to `CN(C)c1nc(N[C@H]2CC[C@@H](CNC(=O)c3ccccc3SC(F)F)CC2)nc2c1CCCC2` [compound 644], the class is reported as 3 (Class 3 The value of percent of control at 10^−7 M was more than 60% or the value of IC50 was more than 200 nM.). Consider `CN(C)c1nc(N[C@H]2CC[C@@H](CNC(=O)c3cc(Cl)sc3Cl)CC2)nc2c1CCCC2` [compound 645], for which the class is 3 (Class 3 The value of percent of control at 10^−7 M was more than 60% or the value of IC50 was more than 200 nM.). `CCCSc1ncccc1C(=O)NC[C@H]1CC[C@@H](Nc2nc3c(c(N(C)C)n2)CCCC3)CC1` [compound 646]: the class was 1 (Class 1: The value of percent of control at 10^−7 M was less than 40% or the value of IC50 was less than 50 nM.). As for `CN(C)c1nc(N[C@H]2CC[C@@H](CNC(=O)c3cc(C(C)(C)C)nn3Cc3ccccc3)CC2)nc2c1CCCC2` [compound 647], the class is given as 3 (Class 3 The value of percent of control at 10^−7 M was more than 60% or the value of IC50 was more than 200 nM.). Consider `CN(C)c1nc(N[C@H]2CC[C@@H](CNC(=O)c3cc(C(C)(C)C)nn3C)CC2)nc2c1CCCC2` [compound 648], for which the class is reported as 3 (Class 3 The value of percent of control at 10^−7 M was more than 60% or the value of IC50 was more than 200 nM.).

Regarding `C/C(=C\c1ccccc1)C(=O)NC[C@H]1CC[C@@H](Nc2nc3c(c(N(C)C)n2)CCCC3)CC1` [compound 649], the class was 3 (Class 3 The value of percent of control at 10^−7 M was more than 60% or the value of IC50 was more than 200 nM.). With `CN(C)c1nc(N[C@H]2CC[C@@H](CNC(=O)c3cncc(Br)c3)CC2)nc2c1CCCC2` [compound 650] the figure was 3 (Class 3 The value of percent of control at 10^−7 M was more than 60% or the value of IC50 was more than 200 nM.); with `CN(C)c1nc(N[C@H]2CC[C@@H](CNC(=O)Cc3cccc4ccccc34)CC2)nc2c1CCCC2` [compound 651], 3 (Class 3 The value of percent of control at 10^−7 M was more than 60% or the value of IC50 was more than 200 nM.); with `Cc1cc(C(=O)NC[C@H]2CC[C@@H](Nc3nc4c(c(N(C)C)n3)CCCC4)CC2)nn1C(C)(C)C` [compound 652], 3 (Class 3 The value of percent of control at 10^−7 M was more than 60% or the value of IC50 was more than 200 nM.). Take `CN(C)c1nc(N[C@H]2CC[C@@H](CNC(=O)c3csc4ccccc34)CC2)nc2c1CCCC2` [compound 653]: the class was 3 (Class 3 The value of percent of control at 10^−7 M was more than 60% or the value of IC50 was more than 200 nM.). With `CN(C)c1nc(N[C@H]2CC[C@@H](CNC(=O)c3ccc(-c4ccccc4)cc3)CC2)nc2c1CCCC2` [compound 654], the class is 3 (Class 3 The value of percent of control at 10^−7 M was more than 60% or the value of IC50 was more than 200 nM.). With `CN(C)c1nc(N[C@H]2CC[C@@H](CNC(=O)c3ccccc3Br)CC2)nc2c1CCCC2` [compound 655] the figure was 3 (Class 3 The value of percent of control at 10^−7 M was more than 60% or the value of IC50 was more than 200 nM.); with `CN(C)c1nc(N[C@H]2CC[C@@H](CNC(=O)c3c(Cl)cccc3Cl)CC2)nc2c1CCCC2` [compound 656, 2,6-dichloro-N-[(cis-4-{[4-(dimethylamino)-5,6,7,8-tetrahydroquinazolin-2-yl]amino}cyclohexyl)methyl]benzamide], 2 (Class 2: The value of percent of control at 10^−7 M was from 40% to 60% or the value of IC′50 was from 50 nM to 200 nM.); with `CN(C)c1nc(N[C@H]2CC[C@@H](CNC(=O)c3ccccc3I)CC2)nc2c1CCCC2` [compound 657], 3 (Class 3 The value of percent of control at 10^−7 M was more than 60% or the value of IC50 was more than 200 nM.).

Regarding `Cc1ccccc1C(=O)NC[C@H]1CC[C@@H](Nc2nc3c(c(N(C)C)n2)CCCC3)CC1` [compound 658], the class is listed as 3 (Class 3 The value of percent of control at 10^−7 M was more than 60% or the value of IC50 was more than 200 nM.).

On to `CN(C)c1nc(N[C@H]2CC[C@@H](CNC(=O)c3cccc(Cl)c3Cl)CC2)nc2c1CCCC2` [compound 659], for which the class was 3 (Class 3 The value of percent of control at 10^−7 M was more than 60% or the value of IC50 was more than 200 nM.). In the case of `CN(C)c1nc(N[C@H]2CC[C@@H](CNC(=O)c3cc(F)ccc3Cl)CC2)nc2c1CCCC2` [compound 660] it was 3 (Class 3 The value of percent of control at 10^−7 M was more than 60% or the value of IC50 was more than 200 nM.); in that of `CN(C)c1nc(N[C@H]2CC[C@@H](CNC(=O)c3cccc4c3-c3ccccc3C4=O)CC2)nc2c1CCCC2` [compound 661], 3 (Class 3 The value of percent of control at 10^−7 M was more than 60% or the value of IC50 was more than 200 nM.); in that of `CN(C)c1nc(N[C@H]2CC[C@@H](CNC(=O)c3c(F)ccc(F)c3F)CC2)nc2c1CCCC2` [compound 662], 3 (Class 3 The value of percent of control at 10^−7 M was more than 60% or the value of IC50 was more than 200 nM.). In the case of `CN(C)c1nc(N[C@H]2CC[C@@H](CNC(=O)c3cccc(F)c3F)CC2)nc2c1CCCC2` [compound 663], the class is reported as 3 (Class 3 The value of percent of control at 10^−7 M was more than 60% or the value of IC50 was more than 200 nM.). `CN(C)c1nc(N[C@H]2CC[C@@H](CNC(=O)c3c(F)cccc3F)CC2)nc2c1CCCC2` [compound 664]: the class is given as 3 (Class 3 The value of percent of control at 10^−7 M was more than 60% or the value of IC50 was more than 200 nM.).

As for `CN(C)c1nc(N[C@H]2CC[C@@H](CNC(=O)c3c(F)cccc3C(F)(F)F)CC2)nc2c1CCCC2` [compound 665], the class is 3 (Class 3 The value of percent of control at 10^−7 M was more than 60% or the value of IC50 was more than 200 nM.).

As for `Cc1cc(C)c(C(=O)NC[C@H]2CC[C@@H](Nc3nc4c(c(N(C)C)n3)CCCC4)CC2)c(C)c1` [compound 666], the class is reported as 2 (Class 2: The value of percent of control at 10^−7 M was from 40% to 60% or the value of IC′50 was from 50 nM to 200 nM.). For the molecule `CN(C)c1nc(N[C@H]2CC[C@@H](CNC(=O)c3c(F)cccc3Cl)CC2)nc2c1CCCC2` [compound 667], the class was 2 (Class 2: The value of percent of control at 10^−7 M was from 40% to 60% or the value of IC′50 was from 50 nM to 200 nM.). As to `CN(C)c1nc(N[C@H]2CC[C@@H](CNC(=O)c3c(Cl)cc(Cl)cc3Cl)CC2)nc2c1CCCC2` [compound 668, 2,4,6-trichloro-N-[(cis-4-{[4-(dimethylamino)-5,6,7,8-tetrahydroquinazolin-2-yl]amino}cyclohexyl)methyl]benzamide], the class is reported as 1 (Class 1: The value of percent of control at 10^−7 M was less than 40% or the value of IC50 was less than 50 nM.). In the case of `CN(C)c1nc(N[C@H]2CC[C@@H](CNC(=O)/C=C/c3ccccc3Cl)CC2)nc2c1CCCC2` [compound 669] it was 3 (Class 3 The value of percent of control at 10^−7 M was more than 60% or the value of IC50 was more than 200 nM.).

On to `Cc1ccc(Cl)c(C(=O)NC[C@H]2CC[C@@H](Nc3nc4c(c(N(C)C)n3)CCCC4)CC2)c1F` [compound 670], for which the class is 3 (Class 3 The value of percent of control at 10^−7 M was more than 60% or the value of IC50 was more than 200 nM.).

As to `CN(C)c1nc(N[C@H]2CC[C@@H](CNC(=O)c3c(F)ccc(F)c3Cl)CC2)nc2c1CCCC2` [compound 671], the class is 3 (Class 3 The value of percent of control at 10^−7 M was more than 60% or the value of IC50 was more than 200 nM.). Regarding `Cc1cccc(C(=O)NC[C@H]2CC[C@@H](Nc3nc4c(c(N(C)C)n3)CCCC4)CC2)c1C` [compound 672], the class is recorded as 3 (Class 3 The value of percent of control at 10^−7 M was more than 60% or the value of IC50 was more than 200 nM.). On to `CN(C)c1cc(N[C@H]2CC[C@@H](NC(=O)c3ccc(Br)s3)CC2)nc2ccccc12` [compound 673], for which the class is reported as 2 (Class 2: The value of percent of control at 10^−7 M was from 40% to 60% or the value of IC′50 was from 50 nM to 200 nM.). Turning to `CN(C)c1cc(N[C@H]2CC[C@@H](NC(=O)Cc3c(Cl)ccc(Cl)c3Cl)CC2)nc2ccccc12` [compound 674, N-(cis-4-{[4-(dimethylamino)quinolin-2-yl]amino}cyclohexyl)-2-(2,3,6-trichlorophenyl)acetamide], the class was 3 (Class 3 The value of percent of control at 10^−7 M was more than 60% or the value of IC50 was more than 200 nM.). Take `CN(C)c1cc(N[C@H]2CC[C@@H](NC(=O)Cc3ccc(F)cc3Cl)CC2)nc2ccccc12` [compound 675]: the class is given as 3 (Class 3 The value of percent of control at 10^−7 M was more than 60% or the value of IC50 was more than 200 nM.). With `CN(C)c1cc(N[C@H]2CC[C@@H](NC(=O)c3ccc(-c4ccc(Cl)cc4[N+](=O)[O-])o3)CC2)nc2ccccc12` [compound 676, 5-(4-chloro-2-nitrophenyl)-N-(cis-4-{[4-(dimethylamino)quinolin-2-yl]amino}cyclohexyl)-2-furamide], the class is listed as 2 (Class 2: The value of percent of control at 10^−7 M was from 40% to 60% or the value of IC′50 was from 50 nM to 200 nM.). Take `CN(C)c1cc(N[C@H]2CC[C@@H](NC(=O)c3ccc(Cl)s3)CC2)nc2ccccc12` [compound 677]: the class is given as 2 (Class 2: The value of percent of control at 10^−7 M was from 40% to 60% or the value of IC′50 was from 50 nM to 200 nM.). On to `CN(C)c1cc(N[C@H]2CC[C@@H](NC(=O)CCc3ccccc3O)CC2)nc2ccccc12` [compound 679], for which the class is on record as 3 (Class 3 The value of percent of control at 10^−7 M was more than 60% or the value of IC50 was more than 200 nM.).
